Reference: ChEMBL document CHEMBL2417405, “Synthesis, enzyme kinetics and computational evaluation of N-(β-D-glucopyranosyl) oxadiazolecarboxamides as glycogen phosphorylase inhibitors” (Bioorg Med Chem, 2013)
pKi: −log10 of the molar value. Active and inactive are the calls of the source. The calls are words filed in the database; no cut-off is given here.

Tests used:
[1] = molecular target: T1, Glycogen phosphorylase, muscle form (Oryctolagus cuniculus) (UniProt P00489); assay: Inhibition of rabbit skeletal muscle glycogen phosphorylase bat 625 uM by Lineweaver-Burk plot method
T1 sequence (whole entry): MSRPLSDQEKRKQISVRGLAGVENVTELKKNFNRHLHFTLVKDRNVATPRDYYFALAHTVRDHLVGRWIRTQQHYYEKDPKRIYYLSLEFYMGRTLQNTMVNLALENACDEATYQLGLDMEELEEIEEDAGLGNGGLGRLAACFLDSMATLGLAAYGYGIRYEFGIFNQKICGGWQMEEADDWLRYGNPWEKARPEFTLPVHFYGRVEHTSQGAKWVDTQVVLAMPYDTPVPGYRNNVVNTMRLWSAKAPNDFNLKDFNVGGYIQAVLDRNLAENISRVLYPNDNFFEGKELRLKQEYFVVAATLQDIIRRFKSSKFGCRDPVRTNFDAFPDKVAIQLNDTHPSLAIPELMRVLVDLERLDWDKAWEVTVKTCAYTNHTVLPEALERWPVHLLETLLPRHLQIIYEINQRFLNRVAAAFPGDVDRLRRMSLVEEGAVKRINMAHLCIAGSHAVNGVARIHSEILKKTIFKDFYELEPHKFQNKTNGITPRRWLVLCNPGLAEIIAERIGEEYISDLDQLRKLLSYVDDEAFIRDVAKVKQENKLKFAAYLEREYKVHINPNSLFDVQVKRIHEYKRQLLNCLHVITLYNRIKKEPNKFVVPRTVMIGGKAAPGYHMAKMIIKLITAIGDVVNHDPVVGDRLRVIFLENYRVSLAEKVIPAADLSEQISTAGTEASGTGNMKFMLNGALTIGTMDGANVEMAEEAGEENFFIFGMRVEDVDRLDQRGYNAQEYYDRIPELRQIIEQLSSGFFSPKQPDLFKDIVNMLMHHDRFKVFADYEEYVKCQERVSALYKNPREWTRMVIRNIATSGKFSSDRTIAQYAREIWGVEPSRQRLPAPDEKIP

[2] = molecular target: T2, Glycogen phosphorylase, muscle form (Oryctolagus cuniculus, UniProt P00489)
T2 sequence (P00489 whole entry): T1 sequence (whole entry)
Description: Inhibition of rabbit skeletal muscle glycogen phosphorylase b by Lineweaver-Burk plot method

| Compound | inhibition [1] | pKi [2] |
| --- | --- | --- |
| O=C(N[C@@H]1O[C@H](CO)[C@@H](O)[C@H](O)[C@H]1O)c1cn(-c2ccc3ccccc3c2)nn1 | inactive |  |
| O=C(N[C@@H]1O[C@H](CO)[C@@H](O)[C@H](O)[C@H]1O)c1nc(-c2cccc3ccccc23)no1 |  | 3.84 |
| O=C(N[C@@H]1O[C@H](CO)[C@@H](O)[C@H](O)[C@H]1O)c1noc(-c2ccccc2)n1 |  | 3.87 |
| O=C(N[C@@H]1O[C@H](CO)[C@@H](O)[C@H](O)[C@H]1O)c1nnc(-c2ccc3ccccc3c2)o1 |  | 4.52 |
| O=C(N[C@@H]1O[C@H](CO)[C@@H](O)[C@H](O)[C@H]1O)c1noc(-c2cccc3ccccc23)n1 |  | 4.48 |
| O=C(N[C@@H]1O[C@H](CO)[C@@H](O)[C@H](O)[C@H]1O)c1noc(-c2ccc3ccccc3c2)n1 | inactive |  |
| O=C(N[C@@H]1O[C@H](CO)[C@@H](O)[C@H](O)[C@H]1O)c1cn(-c2ccccc2)nn1 |  | 4.12 |
| O=C(N[C@@H]1O[C@H](CO)[C@@H](O)[C@H](O)[C@H]1O)c1cc(-c2ccc3ccccc3c2)no1 | inactive |  |
| O=C(N[C@@H]1O[C@H](CO)[C@@H](O)[C@H](O)[C@H]1O)c1nnc(-c2cccc3ccccc23)o1 |  | 3.76 |
| O=C(N[C@@H]1O[C@H](CO)[C@@H](O)[C@H](O)[C@H]1O)c1nnc(-c2ccccc2)o1 |  | 3.26 |
| O=C(N[C@@H]1O[C@H](CO)[C@@H](O)[C@H](O)[C@H]1O)c1nc(-c2ccccc2)no1 |  | 3.98 |
| O=C(N[C@@H]1O[C@H](CO)[C@@H](O)[C@H](O)[C@H]1O)c1nc(-c2ccc3ccccc3c2)no1 | inactive |  |
| O=C(N[C@@H]1O[C@H](CO)[C@@H](O)[C@H](O)[C@H]1O)c1cc(-c2ccccc2)no1 |  | 3.76 |
